Measurements as given in patent US11117905B2, “Bisaryl heterocycles as NRF2 activators” (GLAXOSMITHKLINE INTELLECTUAL PROPERTY DEVELOPMENT LIMITED, priority 2016, dated 2021).

Experiments:
[1] = system: rats on a choline-deficient L-amino acid-defined diet; conditions: cited from earlier work
[2] = system: rats in a cerebral ischemia-reperfusion model; conditions: cited from earlier work
[3] = system: NRF2 wild-type and KO mice; conditions: after administration, NRF2 wild-type vs KO mice; cited from earlier work
[4] = system: COPD macrophages and alveolar macrophages from cigarette smoke-exposed mice; conditions: cited from earlier work
[5] = system: NQO1 specific enzyme activity in BEAS-2B cells (marker for NRF2 activation); test: BEAS-2B NQO1 MTT Assay; format: cell-based; conditions: Homo sapiens, BEAS-2B, 48 h, NQO1 specific activity induction, 48 hours with compound
Method in brief: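 BEAS-2B cells were plated at 250,000 cells/mL and treated after overnight culture with compound for 48 h at 37° C, 5% CO2. NQO1 activity in crude lysates was read kinetically as MTT reduction at 570 nm over 30 min. pEC50 comes from ΔOD/min versus log concentration with a 3-parameter fit.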

For O=C(NCc1ccccn1)Nc1nnc(-c2ccco2)o1 [NK-252], the “progression of histologic abnormalities, especially hepatic fibrosis” value [1] is given as “significantly attenuated progression”.
In the case of Cc1c(-c2cnccn2)ssc1=S [oltipraz], the “progression of histologic abnormalities, especially hepatic fibrosis” value [1] is listed as “significantly attenuated progression”.
For CC(C)(C)c1cc(O)ccc1O [tBHQ, tert-butylhydroquinone], the cortical damage [2] is listed as “reduced cortical damage” and the cortical glutathione levels [3] is listed as “increased in NRF2 wild-type but not KO mice”.
In the case of C[S+]([O-])CCCCN=C=S (centres unmarked) [Sulforaphane], the “expression of Macrophage Receptor with Collagenous structure (MARCO)” value ([4]; COPD macrophages and alveolar macrophages from cigarette smoke-exposed mice) is listed as “increases the expression of Macrophage Receptor with Collagenous structure (MARCO)” and the “bacterial phagocytosis (Pseudomonas aeruginosa, non-typable Haemophilus influenzae) and bacterial clearance” value ([4]; ex vivo and in vivo) is listed as “improving in these cells bacterial phagocytosis”.
For CC[C@@H]1CN(Cc2nc([C@@H](c3ccc4c(nnn4CC)c3C)C(C)(C)C(=O)Nc3cccnc3)sc2C)S(=O)(=O)c2ncccc2O1 [Example 30, (S)-3-(4-(((R)-4-Ethyl-1,1-dioxido-3,4-dihydro-2H-pyrido[3,2-b][1,4,5]oxathiazepin-2-yl)methyl)-5-methylthiazol-2-yl)-3-(1-ethyl-4-methyl-1H-benzo[d][1,2,3]triazol-5-yl)-2,2-dimethyl-N-(pyridin-3-yl)propanamide], the EC50 [5] was 100 to 1000 nM.
CCn1nnc2c(F)c([C@@H](c3cc(CN4C[C@@H](C)Cc5ccc(C(F)(F)F)cc5S4(=O)=O)c(Cl)s3)C(C)(C)C(=O)O)ccc21 [Example 43, (S)-3-(5-Chloro-4-(((S)-4-methyl-1,1-dioxido-8-(trifluoromethyl)-4,5-dihydrobenzo[f][1,2]thiazepin-2(3H)-yl)methyl)thiophen-2-yl)-3-(1-ethyl-4-fluoro-1H-benzo[d][1,2,3]triazol-5-yl)-2,2-dimethylpropanoic Acid] gave an EC50 [5] of 10 to 100 nM.
